Entries after “also recorded” stand apart in the source; their conditions may differ. Like-named read-outs stand apart in the source and are kept apart here.
Tests used:
[1] = system: human type II collagen fusion promoter (Col2a1 promoter); experiment: Luciferase reporter screening system in C28/I2-EC2P-fLuc-CN5 cell line; assay type: cell-based; settings: for cartilage regeneration activity (luminescence) compared with Kartogenin; criterion equal to or higher than Kartogenin: 50 μM, 48 hours, screen of 37 natural products
Protocol: All the experimental groups for the verification of the screening system according to the present invention and the search for novel cartilage regeneration materials were prepared by dissolving the same in dimethyl sulfoxide (DMSO) at the same concentration of 20 mM. The cells to be analyzed were seeded and fixed into a white-bottom 96-well plate, which was a plate exclusively used for luminescence analysis, at an initial concentration of 10,000 cells per well 24 hours before the experiment. On the following day, the cells were subjected to starvation in serum-free culture fluid (DMEM/F12 media) for seven hours. After that, while the culture fluid was replaced with the serum culture fluid [DMEM/F12, 10% FBS, 1% penicillin, and streptomycin], the experimental groups on natural products at each 20 mM were diluted 1/400, treated repeatedly three times, and further cultured for 48 hours.
After further culturing the cells to be analyzed, which were treated with natural materials in above 5.1, for 48 hours, all the culture fluid was removed and replaced with a new culture fluid containing D-luciferin at a final concentration of 150 μg/ml and reacted at room temperature for five minutes. Then, the degree of light emission from each cell was measured by using the luminescence analysis function of the TECAN SPARK multi-reader.
By using the screening system for cartilage disease treatment agents according to the present invention, the pattern of changes in cartilage regeneration activity according to the treatment concentration of 2-AQCA was compared with the activity of Kartogenin, a positive control group of natural material.

[2] = system: Sox9; experiment: Rq-PCR of Sox9 expression in C28/I2 micromass culture; assay type: cell-based, human; settings: 10 μM, 14 days micromass culture
Protocol: (§1) C28/I2 cell lines were subjected to micromass culture in order to compare and examine the change in the expression of Col2a1 and Sox9, which are the representative cartilage differentiation markers, and Col10, which is a cartilage hypertrophy marker, by treatment with the complex functional natural material 2-AQCA during long-term culture for inducing cartilage differentiation. For this purpose, the C28/I2 cells cultured for three days were collected and a cell fluid was prepared at a concentration of 2×10^7 cells/ml, and then 10 μl of cells were taken and injected into the center of a 24-well plate, and fixed in an incubator of 37° C., 5% CO2 for two to three hours until all the cells were attached to the bottom. When all the cells were fixed, 500 μl of serum culture fluid (DMEM/F12, 10% FBS, 1% penicillin, and streptomycin) was added and further cultured for seven hours or more. […]
(§2) After completing the micromass culture for 14 days, RNA was isolated from each cell pellet by using TRIzol™, and cDNA was synthesized from the isolated RNA. The synthesized cDNA was compared and analyzed for expression of the corresponding gene through a real-time quantitative polymerase chain reaction (Rq-PCR) by using a specific primer for each gene. […]

[3] = system: Col10a1; experiment: Rq-PCR of Col10a1 expression in C28/I2 micromass culture; assay type: cell-based, human; settings: 10 μM, 14 days micromass culture
Protocol: as §1, §2

[4] = system: Col2a1; experiment: Rq-PCR of Col2a1 expression in C28/I2 micromass culture; assay type: cell-based, human; settings: 10 μM, 14 days micromass culture
Protocol: as §1, §2

[5] = system: C28/I2 cell line; assay type: cell-based, human
Protocol: To confirm the effect of 2-AQCA on inhibiting a cell growth rate and the presence of toxicity, the cells to be analyzed (C28/I2 cell line and chondrocytes isolated from osteoarthritis patients) were seeded and fixed at an initial concentration of 10,000 cells per well in a 96-well plate 24 hours before the experiment, and the cells were subjected to starvation in serum-free culture fluid for seven hours on the following next day. After that, while the culture fluid was replaced with a serum culture fluid containing 10% FBS, the experimental groups were treated repeatedly three times with Kartogenin and 2-AQCA at each concentration and further cultured for 48 hours. The cells were treated with the test materials at each concentration of 0, 3.125, 6.25, 12.5, and 25 μM, which had been used to verify the effect of treatment at each of the concentrations. Similarly, in order to equalize the experimental conditions, the treatment was performed so that the final concentration of DMSO was 0.25% in all the experimental groups. […] Then, the absorbance of each cell was measured at 450 nm by using a TECAN SPARK multi-reader.

[6] = C28/I2-EC2P-fLuc-CN5, drug 0 to 50 μM

SMILES | luciferase activity at 50 μM ([1]; C28/I2-EC2P-fLuc-CN5, 50 μM) | luciferase activity with increasing concentration [1, 6] | cytotoxicity indirectly suggested by the luciferase activity ([1]; high concentration (50 μM)) | Sox9 expression relative to the negative control group [2] | decrease in Col10a1 expression compared to the negative control group [3] | Col2a1 expression rate relative to the Kartogenin group [4] | Col2a1 expression rate relative to the negative control group [4] [times] | cartilage regeneration activity compared with Kartogenin ([1]; 25 μM) | cartilage regeneration activity (luminescence) compared with Kartogenin; criterion equal to or higher than Kartogenin [1] | cartilage regeneration activity compared with Kartogenin ([1]; concentration of less than 25 μM) | cell growth rate higher than that of Kartogenin ([5]; C28/I2, 6.25 μM) | cell growth rate higher than that of Kartogenin ([5]; C28/I2, 12.5 μM) | luciferase activity compared with Kartogenin [1, 6]
O=C(O)c1ccccc1C(=O)Nc1ccc(-c2ccccc2)cc1 [Kartogenin] | decreases the luciferase activity | increased as the concentration of both drugs is increased | has cytotoxicity at a high concentration | insignificant increase | about 40% |  |  |  |  |  |  |  | 
O=C(O)c1ccc2c(c1)C(=O)c1ccccc1C2=O [2-AQCA, 2-anthraquinonecarboxylic acid] |  |  |  | at least 2.1 times | about 40% | about 4.2 times | 7.6 | slightly higher than that of Kartogenin | complies with the above conditions | somewhat lower than that of Kartogenin | about 11% | about 8.2% | 
Cn1ncc2c1-c1c(Oc3ccc(OCc4ccc5ccccc5n4)cc3)sc(C(N)=O)c1CC2 [TD-198946] |  | increased as the concentration of both drugs is increased; also recorded: continuously increases the luciferase activity |  |  |  |  |  |  | higher than that of Kartogenin |  |  |  | higher than that of Kartogenin

Reference: patent US20230107128A1, “SCREENING SYSTEM FOR HUMAN-TRANSFORMED CARTILAGE CELL LINE-BASED CARTILAGE DISEASE TREATMENT AGENTS” (LUGEN SCI CO., LTD., priority 2018, published 2023)
